Results reported in PubChem BioAssay AID602215 (Sanford-Burnham Center for Chemical Genomics, 2012).
Active and inactive are the calls of the source.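 Rule for the calls: active = IC50 of 20 µM or lower; inactive = the rest.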

The molecules below were run on HL-1 cardiomyocytes, H2O2 injury, ATP luminescence, 2 h (assay: protection of HL-1 cardiomyocytes from peroxide injury, dose response, cell-based, ATP luminescence (AID 602215);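 note: potency is for protection so actives raise ATP signal against peroxide damage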).
In the case of Cc1ccc(C)c(NC(=O)C(Sc2nc3ccccc3c(=O)n2CC(C)C)c2ccccc2)c1 (configuration not stated), the IC50 is reported as > 79 µM (inactive).
For COc1ccc(-n2c(/C=C/c3ccc(O)c(OC)c3)nc3ccccc3c2=O)cc1, the IC50 was 12.1 µM.
In the case of Cc1ccc(-n2cc(-c3ccccc3)c3c(N4CCOCC4)ncnc32)cc1, the IC50 is reported as > 79 µM (inactive).
Work on COc1cccc(-c2cnc3c(NC(C)=O)cc(-c4cccc(NS(C)(=O)=O)c4)cn23)c1 yielded an IC50 of 6.83 µM.
In the case of COCCN1Cc2cccc(C(=O)Nc3cccc(-c4nc5ccccc5[nH]4)c3)c2C1=O, the IC50 is reported as > 79 µM (inactive).
With Cc1cc(N)n(-c2nc(-c3cccnc3)nc3ccccc23)n1 the IC50 was > 79 µM (inactive).
COc1cc(CN2C[C@@H](CO)O[C@@H](n3cnc4c(Nc5ccccc5)ncnc43)C2)cc(OC)c1OC was tested, and the IC50 was 20.5 µM (inactive).
With NC(=O)c1nsc(C(=O)N(c2ccccc2)C(C(=O)NCc2ccc(F)cc2)c2ccc(O)cc2)c1N (configuration not stated) the IC50 was > 79 µM (inactive).
With Cc1[nH]c2ccccc2c1/C=N/NC(=O)c1cc(-c2ccccc2)n[nH]1 the IC50 was > 79 µM (inactive).
With CC(=O)c1ccc(-c2ccc(C(=O)Nc3nc(-c4ccccn4)cs3)o2)cc1 the IC50 was > 79 µM (inactive).
Cc1[nH]c2ccccc2c1/C=N/NC(=O)c1cc(-c2cccs2)[nH]n1 was tested, and the IC50 was > 79 µM (inactive).
In the case of O=C(Nc1ccccc1)c1nc[nH]c1C(=O)NCCNC(=O)c1[nH]cnc1C(=O)Nc1ccccc1, the IC50 is reported as > 79 µM (inactive).
For COc1cc(-c2cc3nc(NCCc4ccc(S(N)(=O)=O)cc4)ccn3n2)cc(OC)c1OC, the IC50 was 15.1 µM.
With COC(=O)c1[nH]c2ccccc2c1NC(=O)CNC1CCCCC1 the IC50 was > 79 µM (inactive).
With COc1ccc2c(c1OC)C(=O)N1c3ccccc3C(=O)N(c3ccccc3)C21 (configuration not stated) the IC50 was > 79 µM (inactive).
In the case of COc1ccc(-c2cc(-c3nnc(COC(=O)c4ccncc4)o3)c3ccccc3n2)cc1OC, the IC50 is reported as > 79 µM (inactive).
Molecule COc1ccc(-c2cc(-c3nnc(COC(=O)C4CC4C)o3)c3ccccc3n2)cc1OC (configuration not stated) has an IC50 of 3.49 µM.
In the case of O=[N+]([O-])c1ccc(Nc2nc(N/N=C/c3cccc(F)c3)nc(N3CCCC3)n2)cc1, the IC50 is reported as > 79 µM (inactive).
With Brc1cc2c(cc1/C=N/Nc1nc(N3CCCC3)nc(N3CCOCC3)n1)OCO2 the IC50 was 10.9 µM.
With Cn1c(=O)c2[nH]c(NN=Cc3cccc(Br)c3)nc2n(C)c1=O the IC50 was > 79 µM (inactive).
For CCc1nc2ccc(C(=O)Nc3cc(-c4ccccc4)ccc3OC)cn2c1N(C)Cc1nccs1, the IC50 was > 79 µM (inactive).
CC(=O)c1ccc(-c2cnc3c(NC=O)cc(-c4cccc(NS(C)(=O)=O)c4)cn23)cc1 gave an IC50 of 12.9 µM.
CC(=O)Nc1cccc(-c2cc(NC=O)c3ncc(-c4ccc(C(C)=O)cc4)n3c2)c1 gave an IC50 of 6.11 µM.
With O=S(=O)(c1ccccc1)N1CCN(c2nc(-c3cccnc3)nc3ccccc23)CC1 the IC50 was > 79 µM (inactive).
COc1cc(/C=C/c2nnc3c4ccccc4ncn23)cc(OC)c1OC showed an IC50 of 13.8 µM.
With CC(C)=NNc1cnnc2ccc([N+](=O)[O-])cc12 the IC50 was > 79 µM (inactive).
For CCOc1ccc(-n2cc(-c3ccccc3)c3c(N4CCOCC4)ncnc32)cc1, the IC50 was 24 µM (inactive).
With COc1cc(-c2cc(NC(C)=O)c3ncc(-c4ccc(C(C)=O)cc4)n3c2)cc(OC)c1OC the IC50 was > 79 µM (inactive).
In the case of C[C@@H]1CN([C@@H](C)CO)C(=O)c2cc(NC(=O)Nc3ccccc3)ccc2O[C@H]1CN(C)C(=O)Nc1cccc2ccccc12, the IC50 is reported as > 79 µM (inactive).
COc1cc(C(=O)N/N=C/c2ccc(OC(=O)c3ccccc3)c(OC)c2)ccc1O was tested, and the IC50 was > 79 µM (inactive).
With CCN(CC)C(=O)c1[nH]cnc1C(=O)NCC(=O)OCc1ccccc1 the IC50 was > 79 µM (inactive).
In the case of COc1cccc(/C=N/NC(=O)c2oc3nc(-c4ccccc4)cc(-c4ccco4)c3c2N)c1, the IC50 is reported as > 79 µM (inactive).
With COc1ccc(N(CC(=O)Nc2cccc(C(C)=O)c2)S(=O)(=O)c2ccc(NC(C)=O)cc2)cc1 the IC50 was > 79 µM (inactive).
COc1ccc(-c2csc(NC(=O)CCCc3nc4ccccc4c(=O)[nH]3)n2)cc1OC was tested, and the IC50 was 11.9 µM.
CN(C)S(=O)(=O)c1ccc2[nH]cc(/C=C/c3nc4ccccc4c(=O)n3-c3ccccc3)c2c1 was tested, and the IC50 was > 79 µM (inactive).
CC(=O)Nc1cccc(-c2cc(NC(C)=O)c3ncc(-c4ccccc4)n3c2)c1 was tested, and the IC50 was > 79 µM (inactive).
For COc1cc(OC)cc(-c2cc3nc(C)c(CCC(=O)Nc4nc(C)cs4)c(C)n3n2)c1, the IC50 was > 79 µM (inactive).
Molecule CCCNC(=O)c1ccc(N2CCC3(CC2)CC(c2ccccc2)=NO3)c(NC(=O)c2ccco2)c1 has an IC50 of 3.22 µM.
In the case of COc1ccccc1N1CCN(C(=O)c2ccc3nc(-c4ccco4)c(-c4ccco4)nc3c2)CC1, the IC50 is reported as > 79 µM (inactive).
For CCOc1ccc(C(C(=O)NC2CCCC2)N(C(=O)c2snc(C(N)=O)c2N)c2cccc(O)c2)cc1 (configuration not stated), the IC50 was 4.32 µM.
For COc1ccc(-c2cc(C(=O)N(C)Cc3ccc(OC)c(OC)c3OC)c3ccccc3n2)cc1OC, the IC50 was 11.6 µM.
With O=C(Nc1cccc(NC(=O)c2ccc([N+](=O)[O-])o2)c1)c1ccco1 the IC50 was > 79 µM (inactive).
With COc1ccc(NC(=O)c2cc(-c3ccccn3)nc3ccccc23)cc1S(=O)(=O)N(C)C the IC50 was > 79 µM (inactive).
Work on CCCn1nc(C(=O)Nc2nc(-c3ccccn3)cs2)c2ccccc2c1=O yielded an IC50 of 7.02 µM.
For COc1ccc(C(C(=O)NCc2ccccc2)N(Cc2ccco2)C(=O)c2snc(C(N)=O)c2N)cc1 (configuration not stated), the IC50 was 44.1 µM (inactive).
With COc1cc2[nH]c(=O)n3nc(-c4ccccc4)nc3c2cc1OC the IC50 was > 79 µM (inactive).
With COc1nc(N/N=C/c2cc3c(cc2Br)OCO3)nc(N2CCOCC2)n1 the IC50 was > 79 µM (inactive).
